Test results published in US20260069558A1, “RXFP1 MODULATORS FOR TREATING RESISTANT HYPERTENSION OR HEART FAILURE WITH PULMONARY HYPERTENSION” (ASTRAZENECA AB, priority 2022, published 2026).
Values after ≈ are worked out from the molar mass of the structure shown.

What was measured:
human RXFP1 = target: T1, human RXFP1 (Homo sapiens, UniProt Q9HBX9); assay: RXFP1 Hu cAMP (Test A), HTRF cAMP production; type: cell-based; conditions: for Test A Sinf: fitted efficacy at infinite concentration, normalized to response of 1 nM relaxin, arithmetic mean
T1 construct: expressed in transfected cells; host or cells: Jump-In T-REx CHO-K1 cells (ThermoFisher)
T1 sequence (Q9HBX9 1-757): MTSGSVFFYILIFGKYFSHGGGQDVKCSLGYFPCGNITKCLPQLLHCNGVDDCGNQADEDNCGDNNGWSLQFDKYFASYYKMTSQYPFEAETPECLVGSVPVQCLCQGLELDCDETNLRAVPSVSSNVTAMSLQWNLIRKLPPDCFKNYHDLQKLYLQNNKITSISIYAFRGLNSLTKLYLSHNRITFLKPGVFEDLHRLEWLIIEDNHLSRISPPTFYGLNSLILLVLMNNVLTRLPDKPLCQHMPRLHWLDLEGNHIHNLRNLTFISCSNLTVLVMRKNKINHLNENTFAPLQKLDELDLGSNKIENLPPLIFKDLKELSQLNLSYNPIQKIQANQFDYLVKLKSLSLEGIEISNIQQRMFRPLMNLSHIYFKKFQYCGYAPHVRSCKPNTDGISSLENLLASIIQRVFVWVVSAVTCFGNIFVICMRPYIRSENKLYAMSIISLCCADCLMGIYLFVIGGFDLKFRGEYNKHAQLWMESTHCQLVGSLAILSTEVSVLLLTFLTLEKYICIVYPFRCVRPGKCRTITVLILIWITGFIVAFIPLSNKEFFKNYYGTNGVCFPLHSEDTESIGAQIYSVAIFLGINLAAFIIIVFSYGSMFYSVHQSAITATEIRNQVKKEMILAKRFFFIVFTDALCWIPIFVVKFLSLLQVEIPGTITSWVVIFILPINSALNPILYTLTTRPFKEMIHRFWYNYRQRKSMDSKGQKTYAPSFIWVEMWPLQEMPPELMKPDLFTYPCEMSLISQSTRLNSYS
Description: To screen for modulators of hRXFP1, an assay identifying compounds that stimulate cAMP production via the Gs-coupled hRXFP1 receptor was used. cAMP HiRange HTRF kit (available from CisBio Bioassays, France; catalogue number 62AM6PEJ) was employed in large according to manufacturer's recommendations for detection of cAMP. The HTRF method is a competitive immunoassay between native cAMP produced by cells and cAMP labeled with the dye d2. The tracer binding is visualized with a cryptate labeled antibody for cAMP and the signal is thus inversely proportional to the amount of produced cAMP.
Cells: Jump-In™ T-REx™ CHO-K1 Cells (ThermoFisher) stably transfected with human RXFP1 was employed. Cells were induced to express human RXFP1 by treatment with 10 ng/ml doxycycline for 24 h. Cells were then cryopreserved for long term storage.
HTRF detection reagents: cAMP-d2 and anti-cAMP cryptate reconstituted according to CisBio instructions were diluted 1:40 in lysis buffer provided with the HTRF-kit.
Using a cAMP standard curve, HTRF data was converted to amount cAMP produced in the samples which was subsequentially used for calculation of concentration responses.
Concentration response data were fitted with a four parameter logistic fit, the Hill equation.
Where the assay was run multiple times for the same compound, the geometric mean is reported.
Sinf is the fitted activity level, efficacy, at infinite concentration of test compound. To facilitate comparison of efficacy data, efficacy was normalized to % effect of the response stimulated by a saturating concentration of relaxin (1 nM). Where the assay was run multiple times for the same compound, the arithmetic mean is reported.

Solubility (Test F) = type: physicochemical; conditions: arithmetic mean
Protocol: The assay was conducted according to the Solubility Assay described in pages 164-167 of Wemevik, J. et al., “A Fully Integrated Assay Panel for Early Drug Metabolism and Pharmacokinetics Profiling”, Assay and Drug Development Technologies, 2020, 18(4), 157-179. Where the assay was run multiple times for the same compound, the arithmetic mean is reported.

[1] = Rat Hepatocyte Stability (Test E); type: in vitro ADME; conditions: rat hepatocytes; geometric mean
Protocol: Rat Hepatocyte Stability (Test E)
The assay was conducted according to the Rat Hepatocyte Stability Assay described in pages 170-174 of Wernevik, J. et al., “A Fully Integrated Assay Panel for Early Drug Metabolism and Pharmacokinetics Profiling”, Assay and Drug Development Technologies, 2020, 18(4), 157-179. Data are reported in Table 1 as mean Clint (μl/min/10^6 cells). Where the assay was run multiple times for the same compound, the geometric mean is reported.

[2] = Human Liver Microsomal Stability (Test C); type: in vitro ADME; conditions: human liver microsomes; arithmetic mean
Protocol: Human Liver Microsomal Stability (Test C)
The assay was conducted according to the Human Liver Microsome Stability Assay described in pages 170-174 of Wemevik, J. et al., “A Fully Integrated Assay Panel for Early Drug Metabolism and Pharmacokinetics Profiling”, Assay and Drug Development Technologies, 2020, 18(4), 157-179. Data are reported in Table 1 as CLint (μl/min/mg protein).
Where the assay was run multiple times for the same compound, the arithmetic mean is reported.

[3] = Human Plasma Protein Binding (Test B); type: in vitro ADME; conditions: fraction unbound (fu), arithmetic mean
Protocol: Human Plasma Protein Binding (Test B)
The assay was conducted according to the Human Plasma Protein Binding Assay described in pages 167-170 of Wemevik, J. et al., “A Fully Integrated Assay Panel for Early Drug Metabolism and Pharmacokinetics Profiling”, Assay and Drug Development Technologies, 2020, 18(4), 157-179. Data are reported in Table 1 as fraction unbound (fu) (% free). Where the assay was run multiple times for the same compound, the arithmetic mean is reported.

[4] = Human Hepatocyte Stability (Test D); type: in vitro ADME; conditions: cryopreserved pooled human hepatocytes (LiverPool 10-Donor), geometric mean
Protocol: Human Hepatocyte Stability (Test D)
Prepare 10 mM stock solutions of compound and control compounds in appropriate solvent (DMSO). Place incubation medium (L-15 Medium) in a 37° C. water bath, and allow warming for at least 15 minutes prior to use. • 2. […] Remove a vial of cryopreserved (less than −150° C.) human hepatocytes (LiverPool™ 10-Donor Human hepatocytes obtained from Bioreclamation IVT (Product No. S01205)) from storage, ensuring that vials remain at cryogenic temperatures until thawing process ensues. As quickly as possible, thaw the cells by placing the vial in a 37° C. water bath and gently shaking the vials. Vials should remain in water bath until all ice crystals have dissolved and are no longer visible. After thawing is complete, spray vial with 70% ethanol, transfer the vial to a bio-safety cabinet. • 5. Open the vial and pour the contents into the 50 mL conical tube containing thawing medium. Place the 50 mL conical tube into a centrifuge and spin at 100 g for 10 minutes (room temperature). […] Using Cellometer® Vision, count cells and determine the viable cell density. […]
All calculations were carried out using Microsoft Excel. Peak areas were determined from extracted ion chromatograms. In vitro intrinsic clearance (in vitro Clint, in μL/min/10^6 cells) of parent compound was determined by regression analysis of the Ln percent parent disappearance vs. time curve.

| SMILES | EC50 (human RXFP1; cAMP production, Jump-In T-REx CHO-K1 cells stably transfected with human RXFP1, geometric mean) | Test A Sinf (human RXFP1) | solubility (Solubility (Test F)) | hepatocyte CLint [1] | microsomal CLint [2] | Test B Human Plasma Protein Binding (% free) [3] | hepatocyte CLint at 1 µM [4] |
| --- | --- | --- | --- | --- | --- | --- | --- |
| COc1cc(F)c(O[C@H]2CC[C@@](C)(C(=O)O)CC2)cc1C(=O)N[C@@H]1[C@H]2CC[C@H](C2)[C@@H]1C(=O)NCC1CCC1 [Example 2, (1S,4s)-4-(5-(((1S,2R,3S,4R)-3-((cyclobutylmethyl)carbamoyl)bicyclo[2.2.1]heptan-2-yl)carbamoyl)-2-fluoro-4-methoxyphenoxy)-1-methylcyclohexane-1-carboxylic acid] | 230 nM | 101% |  |  |  |  |  |
| COc1cc(C#N)c(O[C@H]2CC[C@@](C)(C(=O)O)CC2)cc1C(=O)N[C@@H]1[C@H]2CC[C@H](C2)[C@@H]1C(=O)NCC1CC1 [Example 3, (1S,4s)-4-(2-Cyano-5-(((1S,2R,3S,4R)-3-((cyclopropylmethyl)carbamoyl)bicyclo[2.2.1]heptan-2-yl)carbamoyl)-4-methoxyphenoxy)-1-methylcyclohexane-1-carboxylic acid] |  | 97% |  |  |  |  |  |
| COc1cc(C#N)c(O[C@H]2CC[C@@](C)(C(=O)O)CC2)cc1C(=O)N[C@@H]1[C@H]2CC[C@H](C2)[C@@H]1C(=O)NCC(C)(C)C [Example 5, (1S,4s)-4-(2-cyano-4-methoxy-5-(((1S,2R,3S,4R)-3-(neopentylcarbamoyl)bicyclo[2.2.1]heptan-2-yl)carbamoyl)phenoxy)-1-methylcyclohexane-1-carboxylic acid] |  |  | 910 µM (≈ 491 µg/mL) | 15 µL/min/1e6 cells | < 3 µL/min/mg | 12 % free | < 1.2 µL/min/1e6 cells |
